Source: patent US20050053560A1, “Use of a composition containing extracts of Vitis vinifera and lycopersicum for protecting the skin” (Pharmaton S.A, priority 2003, published 2005)

Test system: normal human skin fibroblasts of the cell line NHDF
Experiment: Fluoroscan process: antioxidant capacity of human skin fibroblasts
Type: cell-based
Settings: NHDF cells, reference substance at 25 μM
Text: For the present cytotoxicity tests and the Fluoroscan process normal human skin fibroblasts of the cell line NHDF were used as the test system, depending on their availability.
The biologically active ingredients (standardised tomato extract, β-Carotene suspension, α-Tocopheryl acetate, standardized grape seed extract, ascorbic acid, selenium yeast) of Seresis® were first investigated in the above-mentioned amounts for possible cytotoxic effects and for their effect on the antioxidant capacity of human skin fibroblasts (NHDF). Apart from the pure mixture of active ingredients the entire contents of an active substance capsule were also used. In addition, a number of additives (oils, etc.) were also included in the test. Using two different in vitro skin models investigations were also carried out to see to what extent the protective effects of the active substances can be visualised. For this, the models were exposed to two different stressors (UV irradiation, activated immune cells).

Cc1c(C)c2c(c(C)c1O)CC[C@@](C)(CCC[C@H](C)CCC[C@H](C)CCCC(C)C)O2 [α-Tocopherol]
antioxidant potential compared with the carrier control: 120%
